Results on 1 compound are retold here after ChEMBL document CHEMBL1159218, “Metabolites of the Palauan sponge Axinyssa aplysinoides” (J Nat Prod, 1995).

Active and inactive are the calls of the source. No cut-off for these calls is given here.

For one test, the system named is Staphylococcus aureus. Briefly: Antibacterial activity against Staphylococcus aureus at 25 ug/disk by disc-diffusion assay. The class given is functional, organism-based. For orientation: A growth-free zone around the sample is the usual read-out of agar diffusion tests.
Another test deals with Bacillus subtilis. The experiment in a line: Antibacterial activity against Bacillus subtilis at 10 ug/disk by disc-diffusion assay. The test is classed as functional, organism-based.

`CC(C)[C@H]1CC[C@@H](C)C2=CC[C@](C)(NC=O)C[C@@H]21` (relative stereo): the outcome with Staphylococcus aureus and in the test with Bacillus subtilis was Active.
